Consider eleven compounds from patent US7220575B2, “Melanoma differentiation associated gene-5 and promoter and uses thereof” (priority 2000, dated 2007).

“Also recorded” adds a separate entry of the source.

Assay [1] relates to mda-5 expression. As to the kind of experiment: Northern blot analysis of mda-5 expression in HO-1 human melanoma cells. The following applies: HO-1 cells; for mda-5 expression (steady-state mda-5 message level): treated 24 hr, Northern blot. Format: cell-based. On the procedure: (§1) FIGS. 2A–2B. Northern blot analysis of mda-5 expression by various compounds inducing differentiation in HO-1 human melanoma cells. RNA samples were extracted from cells treated as indicated for 24 hr. FIG. 2A. HO-1 human melanoma cells. FIG. 2B. Early passage human skin fibroblast cells. Northern hybridization was performed as in Materials and Methods.
(§2) FIGS. 4A–4B. Northern blot analysis of mda-5 expression by ligands for various membrane receptors. RNA samples were extracted from cells treated as indicated for 24 hr. FIG. 4A. HO-1 human melanoma cells. FIG. 4B. Early passage human skin fibroblast cells. Northern hybridization was performed as in Materials and Methods.
FIG. 5. Northern blot analysis and time course of mda-5 expression. RNA samples were extracted from HO-1 cells treated with the indicated reagents and harvested at the indicated time after treatment. Northern blotting was performed as in Materials and Methods.
(§3) FIGS. 7A–7C. […] A. Northern blot analysis of mda-5. […] Cells were harvested at the indicated time after actinomycin D treatment. Northern hybridization was performed as in Materials and Methods. FIG. 7B. Nuclear run-on assays for determining mda-5 transcription rates. Nuclei were prepared from HO-1 melanoma cells treated with the indicated reagent(s) for 4 hr. Blots were prepared and hybridized as described in Materials and Methods. […] FIG. 7C. Northern blot analysis of mda-5 expression after blocking protein synthesis by cycloheximide (CHX). RNA samples were extracted from HO-1 melanoma cells pretreated with 50 μg/ml cycloheximide for 30 min and treated with the indicated reagents for 8 hr. Abbreviations and concentrations of indicated reagents are as in FIG. 4.
(§4) Cell Culture and Treatment Protocol: HO-1 human melanoma cells, early passage human skin fibroblast (purchased from ATCC) and 293T cells were grown in Dulbecco's modified Eagle's medium supplemented with 10% fetal bovine serum at 37° C. in a 5% CO2/95% air humidified incubator. Prior to treatment, cells were refed with fresh medium and exposed to the indicated compound(s) at the concentrations specified in the figure legends.
(§5) Northern Blot Analyses and Nuclear Run-On Assays: Total cellular RNA samples were prepared by guanidium isothiocyanate/phenol extraction followed by isopropanol precipitation. Ten 10 μg of total RNA were resolved in 1% agarose gels with formaldehyde and were transferred to Nylon membranes. EcoRI fragment of mda-5 cDNA (2.5 kb) was labeled with 32P using a multiprime labeling kit (Boehringer Mannheim) and used to probe the transferred membrane. Nuclear run-on assays were performed as previously described ((17) Su et al., 1993, 1999). Probes used for nuclear run-on assays were prepared by RT-PCR and included the mda-5 5′, 9–837 bp; mda-5 3′, 2531–3365 bp; and GAPDH fragment.

Another assay concerns mda-5 transcription. As to the kind of experiment: Nuclear run-on assays for mda-5 transcription rates in HO-1 melanoma cells. Particulars: HO-1 cells treated 4 hr. It counts as cell-based, human. As for the experimental part:
as §3
Northern Blot Analyses and Nuclear Run-On Assays: Total cellular RNA samples were prepared by guanidium isothiocyanate/phenol extraction followed by isopropanol precipitation. Ten 10 μg of total RNA were resolved in 1% agarose gels with formaldehyde and were transferred to Nylon membranes. EcoRI fragment of mda-5 cDNA (2.5 kb) was labeled with 32P using a multiprime labeling kit (Boehringer Mannheim) and used to probe the transferred membrane. Nuclear run-on assays were performed as previously described ((17) Su et al., 1993, 1999). […]

Assay [2] concerns mda-5 expression. As to the kind of experiment: Northern blot analysis of mda-5 expression in early passage human skin fibroblast cells. Format: cell-based. On the procedure:
as §1, §2, §4, §5

The next assay concerns mda-5 promoter. As to the kind of experiment: mda-5 promoter luciferase reporter in HO-1 cells (transient and stable clones). It counts as cell-based, human. A general note: In a reporter assay the amount or activity of a reporter protein is the signal.

Description for mda-5 promoter: FIG. 11: Screening of stable human HO-1 melanoma clones for promoter activity of stably integrated mda-5 reporter construct. Transfected HO-1 cells were selected by Puromycin drug selection and individual colonies analyzed for induction of luciferase activity in the presence of IFN-β. Values are expressed as fold change against uninduced values of luciferase activity.
FIG. 12: Induction kinetics of mda-5 promoter activity. Stable clones #20 and #40 were treated with IFN-β and samples were harvested and analyzed for luciferase activity at the times indicated.
FIG. 13: Responsiveness of the mda-5 promoter to IFN-β levels: Stable clones #20 and #40 were treated with IFN-β and samples were harvested and analyzed for luciferase activity 48h after initiation of treatment. The extent of activity was normalized based on equivalent protein content and performed in duplicate for each clone.
FIGS. 14A–14B: Responsiveness of the mda-5 promoter to various inducers: FIG. 14A. HO-1 cells transiently transfected with the mda-5 reporter and treated for 48 h with equivalent units of IFNs α, β and γ and TNF-α and poly IC:IC. The luciferase activity was expressed as fold increase over untreated control cells. FIG. 14B. Clone #40 was treated with equivalent units of the indicated IFNs for 48 h and luciferase activity expressed as fold activation over untreated cells determined. […]

Take `C[C@@H]1C[C@@H]([C@H](O)CC2CC(=O)NC(=O)C2)C(=O)[C@@H](C)C1` [Cycloheximide, cycloheximide]: the “effect of cycloheximide pre-treatment on mda-5 steady-state mRNA levels induced by IFNs, TNF and poly IC” value with mda-5 expression [1] (50 μg/ml cycloheximide 30 min, then inducers 8 hr) is reported as “does not inhibit”. On to `C=C(C)[C@@]12O[C@@]3(c4ccccc4)O[C@@H]1[C@@H]1[C@@H]4O[C@]4(CO)[C@@H](O)[C@]4(O)C(=O)C(C)=C[C@H]4[C@@]1(O3)[C@H](C)[C@H]2OC(=O)/C=C/C=C/c1ccccc1` [MEZ, mezerein], for which, in the assay with mda-5 expression [1] (24 hr), the “augmentation of mda-5 expression by MEZ in combination with IFN-β” value is recorded as “approximately 3 fold” and the “augmentation of mda-5 expression by MEZ in combination with IFN-γ” value is ~5 fold. For the same compound, the “time at which mda-5 message level begins increasing / induction first apparent” value with mda-5 expression [1] (time course) stood at 48 h. Also, the “mda-5 expression (steady-state mda-5 message level)” value in the assay with mda-5 expression [1] is listed as “does not induce mda-5 expression”. Moreover, the “mda-5 transcription (nuclear run-on)” value in the assay with mda-5 transcription was “negligible levels of transcription”. As for `CCCCCCCCCCCCCC(=O)O[C@@H]1[C@@H](C)[C@@]2(O)[C@@H](C=C(CO)C[C@]3(O)C(=O)C(C)=C[C@@H]23)[C@@H]2C(C)(C)[C@]12OC(C)=O` [TPA, 12-O-tetradecanoylphorbol-13-acetate], in the assay with mda-5 expression [1], the “mda-5 expression (steady-state mda-5 message level)” value is reported as “fail to significantly induce mda-5 expression”. With `CC1=C(/C=C/C(C)=C/C=C/C(C)=C/C(=O)O)C(C)(C)CCC1` [all trans retinoic acid, all-trans-retinoic acid], the “mda-5 expression (steady-state mda-5 message level)” value in the assay on mda-5 expression [1] is listed as “fail to significantly induce mda-5 expression”.

On to `Nc1ncnc2c1ncn2[C@@H]1O[C@@H]2COP(=O)(O)O[C@H]2[C@H]1O` [cyclic-AMP, 3′–5′ cyclic adenosine monophosphate], for which the “mda-5 expression (steady-state mda-5 message level)” value in the assay on mda-5 expression [1] is recorded as “fail to significantly induce mda-5 expression”.

On to `C[S+](C)[O-]` [dimethyl sulfoxide], for which the “mda-5 expression (steady-state mda-5 message level)” value in the assay with mda-5 expression [1] is reported as “fail to significantly induce mda-5 expression”.

As for `COc1c(C)c2c(c(O)c1C/C=C(\C)CCC(=O)O)C(=O)OC2` [mycophenolic acid], the “mda-5 expression (steady-state mda-5 message level)” value in the assay on mda-5 expression [1] is reported as “fail to significantly induce mda-5 expression”.

In the case of IFN-α, the “mda-5 expression (steady-state mda-5 message level)” value in the assay on mda-5 expression [1] is on record as “induce mda-5 expression; also recorded: increase mda-5 transcript levels, but the magnitude of this effect is less than with IFN-β or dsRNA”. Besides, in the assay on mda-5 expression [2], the mda-5 expression entry is “induce mda-5 expression”. On to IFN-γ: interferon-γ, for which the “mda-5 expression (steady-state mda-5 message level)” value in the assay on mda-5 expression [1] is “induce mda-5 expression; also recorded: increase mda-5 transcript levels, but the magnitude of this effect is less than with IFN-β or dsRNA”. For the same compound, the mda-5 expression entry with mda-5 expression [2] is listed as “induce mda-5 expression”.

For the compound TNF-α, the “mda-5 expression (steady-state mda-5 message level)” value in the assay with mda-5 expression [1] is “induce mda-5 expression; also recorded: comparable levels as seen with IFN-α”. Moreover, the mda-5 expression result with mda-5 expression [2] is “induce mda-5 expression”. Take poly IC: the “mda-5 expression (steady-state mda-5 message level)” value in the assay on mda-5 expression [1] is reported as “induce mda-5 expression”; in the assay on mda-5 expression [1] (listed as dsRNA) it was “dramatically increases”. The mda-5 expression entry in the assay on mda-5 expression [2] is on record as “induce mda-5 expression”. Besides, the “responsiveness of mda-5 promoter construct / clones to inducer” value with mda-5 promoter is recorded as “most responsive”.
